{"source": "patent US11744269B2", "about": "“Vegetable and fruit wash formulation and uses thereof” (priority 2020, dated 2023)", "key": {"Candida albicans 10231": {"test_system": "Candida albicans 10231", "test": "Zone of Inhibition Assay for Candida albicans 10231", "assay_type": "cell-based", "method": "Candida albicans is opportunistic pathogenic yeast found to have growth on fruits rich in sugar content like bananas, dates, grapes, mango, and dried fruit. The zone of inhibition assay is performed for the culture of Candida albicans 10231."}, "[1]": {"test_system": "Staphylococcus aureus ATCC 6538", "test": "Zone of Inhibition Assay for Staphylococcus aureus ATCC 6538", "assay_type": "cell-based", "method": "(§1) The anti-microbial efficacy of VFW composition is evaluated by finding its zone of inhibition against Staphylococcus Aureus, Escherichia coli, Candida Albicans and Aspergillus Niger and compared with zone of inhibition of standard antibiotics known to be very potent in eliminating the subject microorganism.\n(§2) The anti-microbial efficacy of VFW composition is evaluated by finding its zone of inhibition against Staphylococcus Aureus, Escherichia coli, Candida albicans and Aspergillus niger and compared with zone of inhibition of standard antibiotics known to be very potent in eliminating the subject microorganism.\nStaphylococcus aureus is a gram-positive, round-shaped bacterium found as dominant genera on the surfaces of vegetables and fruits. The assay was performed for the culture of Staphylococcus aureus ATCC 6538. Ciplox is known to be very effective in eliminating this strain. It was used as standard antibiotic."}, "Escherichia coli 8739": {"test_system": "Escherichia coli 8739", "test": "Zone of Inhibition Assay for Escherichia coli 8739", "assay_type": "cell-based", "method": "as §1, §2\n20-30% of food-poisoning outbreaks linked to disease causing strains of the bacterium Escherichia coli are caused by people eating contaminated vegetables. The assay was performed for the culture of Escherichia coli 8739. Gentamicin is known to be very effective in eliminating this strain and is used as standard antibiotic."}, "[2]": {"test_system": "crown rot disease in Banana", "test": "Crown rotting evaluation of bananas washed in industrial set-up (banana plantation)", "conditions": "bananas soaked 30 minutes maximum in 2% VFW solution in water or NaClO solution in water", "method": "As crown rot progresses, fruits like banana begins to soften and blacken and induces early ripening of fruits.\nThe crown-rot and fruit blackening studies are conducted to determine the efficacy of the Vegetable and Fruit Wash to protect the fruits from the so-called disease and also from premature ripening. This study is also conducted to determine the efficacy of the present invention in prolonging the life of the fruits, i.e. in increasing the shelf life of the fruits.\nA batch of bananas is washed using 2% of Vegetable and Fruit Wash solution in water. The bananas are soaked in the solution for 30 minutes maximum, rinsed, dried and packed and are observed after 2 weeks of washing and after 4 weeks of washing post-delivery and ripening. Another batch of bananas are washed using Sodium Hypochlorite (NaClO) solution in water as per the industry standard washing procedure. The bananas are soaked in the solution for 30 minutes maximum, rinsed, dried and packed. They are observed after 2 weeks of washing and after 4 weeks of washing post delivery and ripening."}}, "data": [{"compound": "Zinc pyrithione [ZPTO]", "values": [{"measurement": "Zone of Inhibition (mm)", "setting": "Candida albicans 10231", "result": 24.37, "unit": "mm"}]}, {"compound": "O=C(O)c1cn(C2CC2)c2cc(N3CCNCC3)c(F)cc2c1=O", "note": "[Ciplox]", "values": [{"measurement": "Zone of Inhibition (mm)", "setting": "[1]", "result": 27.64, "unit": "mm"}]}, {"compound": "Gentamicin", "values": [{"measurement": "Zone of Inhibition (mm)", "setting": "Escherichia coli 8739", "result": 24.54, "unit": "mm"}]}, {"compound": "OCl", "note": "[NaClO, Sodium Hypochlorite]", "values": [{"measurement": "Number of Rotten Crowns 2 weeks after Washing", "setting": "[2]", "result": 1}, {"measurement": "Number of Rotten Crowns 4 weeks after Washing", "setting": "[2]", "result": 3}, {"measurement": "Number of Rotten Crowns after Ripening", "setting": "[2]", "result": 5}]}]}
